The record followed here is PubChem BioAssay (NCI).

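Grown in 96-well plates, cells were treated for 48 hours with each compound at five concentrations. Insufficient inhibition: endpoint recorded as highest concentration tested. GI50 = concentration required for 50% inhibition of growth. TGI denotes the concentration required for complete inhibition of growth.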

The first assay concerns SK-MEL-5 melanoma. As to the kind of experiment: NCI tumour cell line growth inhibition, 48 h.
The compound `CCCCCCc1cc2cc(-c3csc(CC#N)n3)c(=O)oc2cc1O` had a TGI greater than 100 µM.

In turn, `Nn1c(-c2ccccc2)nn(C(=O)c2ccccc2)c1=O` came in with a TGI greater than 100 µM.

For `COC(=O)C([C@H](NC1(c2ccccc2)c2ccccc2-c2ccccc21)C(=O)OC)N(NC(=O)OCc1ccccc1)C(=O)OCc1ccccc1` (mixture of isomers), the TGI was greater than 100 µM.

On to `O=C(NC(=O)c1ccccc1[N+](=O)[O-])Nc1ccc(Oc2ncc(Br)cn2)c(Cl)c1`, for which the GI50 was 0.04 µM.

The compound `CC[C@@H]1CC[C@@H]2[C@H](CC[C@]3(C)[C@@H](OC(C)=O)CC[C@@H]23)[C@H]1COC(C)=O` gave a TGI of 32.7 µM.

`CN1CCc2cc(N)cc3c2C1Cc1ccc(O)c(O)c1-3` (stereo not drawn) yielded a TGI of 46.5 µM.

In the case of `CC(C)=CCc1c2c(c3occ(-c4ccc(O)cc4)c(=O)c3c1O)CC(C(C)(C)O)O2` (stereo not drawn), the TGI was determined as 30.1 µM.

Compound `CC1(C)N=[N+]([O-])C1(C)C` yielded a TGI greater than 100 µM.

In the case of `COc1ccc(C2CC(c3c(O)ccc4ccccc34)=NN2C(C)=O)cc1OC` (stereo not drawn), the TGI came to 71.8 µM.

Consider `COc1cc2nc3n(c(=O)c2cc1OC)-c1ccc([N+](=O)[O-])cc1C3=O`, for which the TGI was greater than 100 µM.

Compound `NC(N)=N/N=C/c1c(-c2ccc(N)cc2)nc2sccn12` had a TGI greater than 100 µM.

Turning to `COC(=O)c1c(C)cccc1C1CN=NC12Cc1ccc(C)cc1C2=O` (stereo not drawn), the TGI was determined as 44.1 µM.

Compound `COC(=O)C1SC(SC)=NC12c1ccccc1Nc1ccccc12` (stereo not drawn) had a TGI of 31 µM.

`c1ccc(N=c2sc3ccccc3nc2Nc2ccccc2)cc1` gave a TGI greater than 100 µM.

In turn, `C=CC1(C)CCC2C(=CCC3C2(C)CC(O)C(O)C3(C)COC2OC(C(=O)O)C(O)C(O)C2O)C1` (stereo not drawn) (tested in a mixture with another compound) gave a TGI greater than 100 µM.

For `Cc1ccccc1C(=O)N1CCc2c([nH]c3ccccc23)C1`, the TGI amounted to 29.6 µM.

Consider `O=C1CC(NC(=O)C(F)(F)F)c2c(Br)sc(N3CCNCC3)c21` (stereo not drawn), for which the TGI is greater than 100 µM.

In the case of `Cc1ccc([N+](=O)[O-])cc1NC1=NCCO1`, the TGI was greater than 100 µM.

In turn, `N#CCCC1C(C#N)C2(Cl)CC1(Cl)C(Cl)=C2Cl` (stereo not drawn) yielded a TGI greater than 10 µM.

Compound `CC(C)(C)N1CSC(=S)N(Cc2ccco2)C1` had a TGI of 14 µM.

Turning to `CN(C)C(=O)O/N=C1/C(c2c(O)[nH]c3ccccc23)=Nc2ccccc21`, the TGI is greater than 100 µM.

With `COc1cc(C2c3cc4c(cc3OC(N3CCOCC3)C2C)OCO4)ccc1O` (stereo not drawn), the TGI was greater than 80.4 µM.

`O=C1/C(=C/c2ccccc2)N=C2Sc3c(nc[nH]c3=O)N12` gave a TGI greater than 100 µM.

Another assay deals with SF-539 CNS. As to the kind of experiment: NCI tumour cell line growth inhibition, 48 h.
Take `CCCCCCc1cc2cc(-c3csc(CC#N)n3)c(=O)oc2cc1O`: the TGI was greater than 64.5 µM.

Regarding `Nn1c(-c2ccccc2)nn(C(=O)c2ccccc2)c1=O`, the TGI was greater than 100 µM.

`COC(=O)C([C@H](NC1(c2ccccc2)c2ccccc2-c2ccccc21)C(=O)OC)N(NC(=O)OCc1ccccc1)C(=O)OCc1ccccc1` (mixture of isomers) registered a TGI greater than 100 µM.

`O=C(NC(=O)c1ccccc1[N+](=O)[O-])Nc1ccc(Oc2ncc(Br)cn2)c(Cl)c1`: the TGI amounted to 0.0524 µM.

In turn, `CC[C@@H]1CC[C@@H]2[C@H](CC[C@]3(C)[C@@H](OC(C)=O)CC[C@@H]23)[C@H]1COC(C)=O` returned a TGI of 67.9 µM.

The compound `CN1CCc2cc(N)cc3c2C1Cc1ccc(O)c(O)c1-3` (stereo not drawn) showed a TGI greater than 100 µM.

With `CC(C)=CCc1c2c(c3occ(-c4ccc(O)cc4)c(=O)c3c1O)CC(C(C)(C)O)O2` (stereo not drawn), the TGI is 41.1 µM.

For the compound `CC1(C)N=[N+]([O-])C1(C)C`, the TGI is greater than 100 µM.

The compound `COc1ccc(C2CC(c3c(O)ccc4ccccc34)=NN2C(C)=O)cc1OC` (stereo not drawn) returned a TGI of 48.9 µM.

`COc1cc2nc3n(c(=O)c2cc1OC)-c1ccc([N+](=O)[O-])cc1C3=O` returned a TGI greater than 100 µM.

Consider `NC(N)=N/N=C/c1c(-c2ccc(N)cc2)nc2sccn12`, for which the TGI amounted to 63.9 µM.

Regarding `COC(=O)c1c(C)cccc1C1CN=NC12Cc1ccc(C)cc1C2=O` (stereo not drawn), the TGI was greater than 100 µM.

Take `COC(=O)C1SC(SC)=NC12c1ccccc1Nc1ccccc12` (stereo not drawn): the TGI is 35.4 µM.

The compound `c1ccc(N=c2sc3ccccc3nc2Nc2ccccc2)cc1` registered a TGI greater than 100 µM.

Take `C=CC1(C)CCC2C(=CCC3C2(C)CC(O)C(O)C3(C)COC2OC(C(=O)O)C(O)C(O)C2O)C1` (stereo not drawn) (tested in a mixture with another compound): the TGI is greater than 100 µM.

`Cc1ccccc1C(=O)N1CCc2c([nH]c3ccccc23)C1`: the TGI amounted to 48.4 µM.

`O=C1CC(NC(=O)C(F)(F)F)c2c(Br)sc(N3CCNCC3)c21` (stereo not drawn) registered a TGI greater than 100 µM.

For the compound `Cc1ccc([N+](=O)[O-])cc1NC1=NCCO1`, the TGI is greater than 100 µM.

Compound `N#CCCC1C(C#N)C2(Cl)CC1(Cl)C(Cl)=C2Cl` (stereo not drawn) showed a TGI greater than 10 µM.

For `CC(C)(C)N1CSC(=S)N(Cc2ccco2)C1`, the TGI turned out to be 2.62 µM.

On to `CN(C)C(=O)O/N=C1/C(c2c(O)[nH]c3ccccc23)=Nc2ccccc21`, for which the TGI was found to be 21.4 µM.

`COc1cc(C2c3cc4c(cc3OC(N3CCOCC3)C2C)OCO4)ccc1O` (stereo not drawn) registered a TGI of 35.6 µM.

The compound `O=C1/C(=C/c2ccccc2)N=C2Sc3c(nc[nH]c3=O)N12` returned a TGI greater than 100 µM.

The next assay concerns RXF 393 renal. As to the kind of experiment: NCI tumour cell line growth inhibition, 48 h.
The compound `CCCCCCc1cc2cc(-c3csc(CC#N)n3)c(=O)oc2cc1O` showed a TGI greater than 89.2 µM.

In turn, `Nn1c(-c2ccccc2)nn(C(=O)c2ccccc2)c1=O` registered a TGI greater than 100 µM.

Regarding `COC(=O)C([C@H](NC1(c2ccccc2)c2ccccc2-c2ccccc21)C(=O)OC)N(NC(=O)OCc1ccccc1)C(=O)OCc1ccccc1` (mixture of isomers), the TGI is greater than 100 µM.

Turning to `O=C(NC(=O)c1ccccc1[N+](=O)[O-])Nc1ccc(Oc2ncc(Br)cn2)c(Cl)c1`, the TGI was determined as 0.0321 µM.

Consider `CC[C@@H]1CC[C@@H]2[C@H](CC[C@]3(C)[C@@H](OC(C)=O)CC[C@@H]23)[C@H]1COC(C)=O`, for which the TGI worked out at 45.9 µM.

In turn, `CN1CCc2cc(N)cc3c2C1Cc1ccc(O)c(O)c1-3` (stereo not drawn) had a TGI greater than 100 µM.

In turn, `CC(C)=CCc1c2c(c3occ(-c4ccc(O)cc4)c(=O)c3c1O)CC(C(C)(C)O)O2` (stereo not drawn) gave a TGI of 30.3 µM.

Take `CC1(C)N=[N+]([O-])C1(C)C`: the TGI is greater than 100 µM.

As to `COc1ccc(C2CC(c3c(O)ccc4ccccc34)=NN2C(C)=O)cc1OC` (stereo not drawn), the TGI was 84.2 µM.

`COc1cc2nc3n(c(=O)c2cc1OC)-c1ccc([N+](=O)[O-])cc1C3=O`: the TGI is 79.7 µM.

Compound `NC(N)=N/N=C/c1c(-c2ccc(N)cc2)nc2sccn12` came in with a TGI of 39.9 µM.

In turn, `COC(=O)c1c(C)cccc1C1CN=NC12Cc1ccc(C)cc1C2=O` (stereo not drawn) had a TGI greater than 100 µM.

For `COC(=O)C1SC(SC)=NC12c1ccccc1Nc1ccccc12` (stereo not drawn), the TGI is greater than 100 µM.

For `c1ccc(N=c2sc3ccccc3nc2Nc2ccccc2)cc1`, the TGI is greater than 100 µM.

`C=CC1(C)CCC2C(=CCC3C2(C)CC(O)C(O)C3(C)COC2OC(C(=O)O)C(O)C(O)C2O)C1` (stereo not drawn) (tested in a mixture with another compound) returned a TGI greater than 100 µM.

`Cc1ccccc1C(=O)N1CCc2c([nH]c3ccccc23)C1` displayed a TGI of 43.1 µM.

The compound `O=C1CC(NC(=O)C(F)(F)F)c2c(Br)sc(N3CCNCC3)c21` (stereo not drawn) came in with a TGI greater than 100 µM.

Regarding `Cc1ccc([N+](=O)[O-])cc1NC1=NCCO1`, the TGI was greater than 100 µM.

Take `N#CCCC1C(C#N)C2(Cl)CC1(Cl)C(Cl)=C2Cl` (stereo not drawn): the TGI was greater than 10 µM.

For the compound `CC(C)(C)N1CSC(=S)N(Cc2ccco2)C1`, the TGI was 19.4 µM.

Compound `CN(C)C(=O)O/N=C1/C(c2c(O)[nH]c3ccccc23)=Nc2ccccc21` displayed a TGI of 14.1 µM.

Regarding `COc1cc(C2c3cc4c(cc3OC(N3CCOCC3)C2C)OCO4)ccc1O` (stereo not drawn), the TGI was determined as 27.6 µM.
